Test results as given in US20260284208A1, “SYSTEM” (Oxford University Innovation Limited, priority 2023, published 2026).

Test system: library of 8,380 IKZF3 degrons (ZF-eGFP/mCherry reporter) in Jurkat cells
Test: Pooled library screen (FACS, NGS, limma voom LogFC of positive vs negative read counts)
Assay type: cell-based, human
Procedure: A library of 8,380 IKZF3 degrons was cloned into pLVX-Sprout to create the eGFP/mCherry protein degradation reporter plasmid pool. A lentivirus pool was then generated using the Lenti-X lentiviral vector production method.
Jurkat cells were transduced at a multiplicity of infection of <0.3 with the lentivirus vector library in order to maximise the number of cells with a single integration. Transductions were carried out in 6 well TC-treated cell culture dishes (Falcon) with 3×10^6 cells per well. Cells were incubated for 2 days at 37° C. and 5% CO2 before the supernatant was removed and replaced with fresh media. 6 days post-transduction, mCherry+ cells were isolated via FACS using the FACS Aria Fusion (BD) in a buffer containing PBS (Gibco), 2 mM EDTA (Gibco), 25 mM HEPES (Sigma) and 1% BSA (Sigma). 8 days later, cells were treated with DMSO or a thalidomide analog for 18 hours at 37° C. and 5% CO2. mCherry+GFPlow and NOT(mCherry+GFPlow) cells were sorted by FACS using the FACS Aria Fusion (BD). DMSO treated cells were used to set the mCherry+GFPlow gate and dead cells were excluded from sorting by staining cells with 1 μg/mL DAPI (ThermoFisher). gDNA was isolated using the Maxwell RSC 48 (Promega). gDNA from cells that were unsorted and untreated were also isolated to determine the library representation on the day of compound treatment. Throughout the screen >600× coverage of the library was maintained. 3 biological replicates were carried out with a new transduction taking place each time.
A two-step PCR was used where the first PCR (PCR1) amplified the integrated degron sequence from gDNA and the second PCR (PCR2) added Illumina adaptors and barcodes to permit multiplexing. See Supp F for PCR1 and PCR2 primers. Q5 Hot Start High-Fidelity 2× Master Mix (New England Biolabs) was used for both PCRs. Sufficient gDNA was amplified in PCR1 in order to maintain >600× coverage and amplicons were purified using solid phase reversible immobilization (SPRI) beads (Beckman Coulter). Purified PCR1 products were analysed on the Tapestation 4200 (Agilent) to confirm purity prior to proceeding to PCR2. Sufficient PCR1 product was amplified in PCR2 in order to maintain >600× coverage and amplicons were run on a 2% agarose TAE gel. Target bands were excised and purified using the NucleoSpin Gel and PCR Clean-up Kit (Machery Nagel). Amplicons were analysed on the Tapestation 4200 and quantified using Qubit dsDNA HS kit (ThermoFisher). PCR products were pooled and sequenced as paired-reads on the NovaSeq (Illumina) using a SP2 200 cycles kit (Illumina).
Count distributions, percentage of read mapping, library coverage and replicate correlation per sample were assessed for QC purposes.
To carry out the library screen, we used the same plasmid construct as in our earlier flow cytometry assays, but pooling all 8,380 mutants together into one Jurkat population, ensuring a copy number of one plasmid per cell (FIG. 4B). […] These GFP-negative cells were then separated from the remaining GFP-positive population using fluorescence activated cell sorting (FACS). These two populations were then sequenced and the relative abundance of every mutant in both populations compared to provide a log FC value for each mutant sequence. This value indicated how frequently a sequence is observed in the GFP-negative population relative to the GFP-positive population, and therefore how effective a degron it is for that particular IMID compound.

O=C1CCC(N2C(=O)c3ccccc3C2=O)C(=O)N1 (centres unmarked) [A32, 2-(2,6-dioxopiperidin-3-yl)isoindoline-1,3-dione]
A32_logFC (Degron-ID 794, SEQ ID NO 61, 46F_47E_49E_50I_52G_53A_54R_55F_67L): 3.549
A32_logFC (Degron-ID 834, SEQ ID NO 125, 46F_47E_49E_50V_52G_53A_54R_55F_67L): 3.292
A32_logFC (Degron-ID 911, SEQ ID NO 130, 46F_47E_49P_50I_52G_53A_54N_55F_67L): 3.269
A32_logFC (Degron-ID 914, SEQ ID NO 108, 46F_47E_49P_50I_52G_53A_54R_55F_67L): 3.367
A32_logFC (Degron-ID 915, SEQ ID NO 119, 46F_47E_49P_50I_52G_53A_54S_55F_67L): 3.325
A32_logFC (Degron-ID 917, SEQ ID NO 116, 46F_47E_49P_50I_52G_53A_54V_55F_67L): 3.331
A32_logFC (Degron-ID 1752, SEQ ID NO 91, 46F_47I_49E_50I_52G_53A_54P_55F_67L): 3.433
A32_logFC (Degron-ID 2392, SEQ ID NO 93, 46F_47L_49P_50V_52G_53A_54P_55F_67L): 3.414
A32_logFC (Degron-ID 2881, SEQ ID NO 123, 46F_47Q_49D_50I_52G_53A_54C_55F_67L): 3.299
A32_logFC (Degron-ID 2887, SEQ ID NO 82, 46F_47Q_49D_50I_52G_53A_54I_55F_67L): 3.467
A32_logFC (Degron-ID 2888, SEQ ID NO 126, 46F_47Q_49D_50I_52G_53A_54K_55F_67L): 3.282
A32_logFC (Degron-ID 2892, SEQ ID NO 112, 46F_47Q_49D_50I_52G_53A_54P_55F_67L): 3.346
A32_logFC (Degron-ID 2941, SEQ ID NO 79, 46F_47Q_49E_50I_52G_53A_54C_55F_67L): 3.477
A32_logFC (Degron-ID 2943, SEQ ID NO 71, 46F_47Q_49E_50I_52G_53A_54E_55F_67L): 3.525
A32_logFC (Degron-ID 2948, SEQ ID NO 84, 46F_47Q_49E_50I_52G_53A_54K_55F_67L): 3.461
A32_logFC (Degron-ID 2949, SEQ ID NO 65, 46F_47Q_49E_50I_52G_53A_54L_55F_67L): 3.534
A32_logFC (Degron-ID 2950, SEQ ID NO 54, 46F_47Q_49E_50I_52G_53A_54M_55F_67L): 3.574
A32_logFC (Degron-ID 2953, SEQ ID NO 58, 46F_47Q_49E_50I_52G_53A_54Q_55F_67L): 3.557
A32_logFC (Degron-ID 2956, SEQ ID NO 137, 46F_47Q_49E_50I_52G_53A_54T_55F_67L): 3.256
A32_logFC (Degron-ID 2988, SEQ ID NO 97, 46F_47Q_49E_50V_52G_53A_54K_55F_67L): 3.401
A32_logFC (Degron-ID 2990, SEQ ID NO 72, 46F_47Q_49E_50V_52G_53A_54M_55F_67L): 3.522
A32_logFC (Degron-ID 2991, SEQ ID NO 55, 46F_47Q_49E_50V_52G_53A_54N_55F_67L): 3.561
A32_logFC (Degron-ID 2992, SEQ ID NO 64, 46F_47Q_49E_50V_52G_53A_54P_55F_67L): 3.535
A32_logFC (Degron-ID 2995, SEQ ID NO 67, 46F_47Q_49E_50V_52G_53A_54S_55F_67L): 3.531
A32_logFC (Degron-ID 3000, SEQ ID NO 100, 46F_47Q_49N_50I_52G_53A_54A_55F_67L): 3.386
A32_logFC (Degron-ID 3001, SEQ ID NO 105, 46F_47Q_49N_50I_52G_53A_54C_55F_67L): 3.375
A32_logFC (Degron-ID 3007, SEQ ID NO 7, 46F_47Q_49N_50I_52G_53A_54I_55F_67L): 3.811
A32_logFC (Degron-ID 3008, SEQ ID NO 134, 46F_47Q_49N_50I_52G_53A_54K_55F_67L): 3.259
A32_logFC (Degron-ID 3013, SEQ ID NO 127, 46F_47Q_49N_50I_52G_53A_54Q_55F_67L): 3.279
A32_logFC (Degron-ID 3014, SEQ ID NO 133, 46F_47Q_49N_50I_52G_53A_54R_55F_67L): 3.262
A32_logFC (Degron-ID 3015, SEQ ID NO 114, 46F_47Q_49N_50I_52G_53A_54S_55F_67L): 3.343
A32_logFC (Degron-ID 3016, SEQ ID NO 6, 46F_47Q_49N_50I_52G_53A_54T_55F_67L): 3.867
A32_logFC (Degron-ID 3017, SEQ ID NO 80, 46F_47Q_49N_50I_52G_53A_54V_55F_67L): 3.473
A32_logFC (Degron-ID 3047, SEQ ID NO 106, 46F_47Q_49N_50V_52G_53A_54I_55F_67L): 3.374
A32_logFC (Degron-ID 3057, SEQ ID NO 94, 46F_47Q_49N_50V_52G_53A_54V_55F_67L): 3.409
A32_logFC (Degron-ID 3060, SEQ ID NO 68, 46F_47Q_49P_50I_52G_53A_54A_55F_67L): 3.529
A32_logFC (Degron-ID 3062, SEQ ID NO 8, 46F_47Q_49P_50I_52G_53A_54D_55F_67L): 3.806
A32_logFC (Degron-ID 3066, SEQ ID NO 120, 46F_47Q_49P_50I_52G_53A_54H_55F_67L): 3.318
A32_logFC (Degron-ID 3067, SEQ ID NO 10, 46F_47Q_49P_50I_52G_53A_54I_55F_67L): 3.792
A32_logFC (Degron-ID 3068, SEQ ID NO 90, 46F_47Q_49P_50I_52G_53A_54K_55F_67L): 3.436
A32_logFC (Degron-ID 3069, SEQ ID NO 107, 46F_47Q_49P_50I_52G_53A_54L_55F_67L): 3.373
A32_logFC (Degron-ID 3071, SEQ ID NO 50, 46F_47Q_49P_50I_52G_53A_54N_55F_67L): 3.58
A32_logFC (Degron-ID 3074, SEQ ID NO 62, 46F_47Q_49P_50I_52G_53A_54R_55F_67L): 3.549
A32_logFC (Degron-ID 3075, SEQ ID NO 11, 46F_47Q_49P_50I_52G_53A_54S_55F_67L): 3.79
A32_logFC (Degron-ID 3076, SEQ ID NO 56, 46F_47Q_49P_50I_52G_53A_54T_55F_67L): 3.56
A32_logFC (Degron-ID 3079, SEQ ID NO 109, 46F_47Q_49P_50I_52G_53A_54Y_55F_67L): 3.361
A32_logFC (Degron-ID 3080, SEQ ID NO 129, 46F_47Q_49P_50Q_52G_53A_54A_55F_67L): 3.273
A32_logFC (Degron-ID 3081, SEQ ID NO 138, 46F_47Q_49P_50Q_52G_53A_54C_55F_67L): 3.255
A32_logFC (Degron-ID 3097, SEQ ID NO 92, 46F_47Q_49P_50Q_52G_53A_54V_55F_67L): 3.423
A32_logFC (Degron-ID 3101, SEQ ID NO 83, 46F_47Q_49P_50V_52G_53A_54C_55F_67L): 3.465
